The assay addresses bovine cardiac myofibrils (full-length cardiac myosin ATPase in the native sarcomere) (Bos taurus (Bovine), UniProt Q9BE39). In words: Skinned bovine cardiac myofibril ATPase assay (PK/LDH-coupled). The note with it: Ca2+ activating to 75% of maximal rate; for CDMF75 IC15: concentration giving 15% inhibition; for IC50: read-out: CDMF75 IC50. The format is biochemical. Summed up: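 Triton-skinned bovine left-ventricle myofibrils (1 mg/mL) in PM 12 buffer (12 mM PIPES, 2 mM MgCl2, pH 6.8) with 50 μM ATP, 0.6 mM EGTA and CaCl2 set for 50% or 75% activation. Steady-state ATPase inhibition followed by PK/LDH-coupled NADH oxidation at 340 nm.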

Sequence of bovine cardiac myofibrils (full-length cardiac myosin ATPase in the native sarcomere) (Q9BE39 whole entry): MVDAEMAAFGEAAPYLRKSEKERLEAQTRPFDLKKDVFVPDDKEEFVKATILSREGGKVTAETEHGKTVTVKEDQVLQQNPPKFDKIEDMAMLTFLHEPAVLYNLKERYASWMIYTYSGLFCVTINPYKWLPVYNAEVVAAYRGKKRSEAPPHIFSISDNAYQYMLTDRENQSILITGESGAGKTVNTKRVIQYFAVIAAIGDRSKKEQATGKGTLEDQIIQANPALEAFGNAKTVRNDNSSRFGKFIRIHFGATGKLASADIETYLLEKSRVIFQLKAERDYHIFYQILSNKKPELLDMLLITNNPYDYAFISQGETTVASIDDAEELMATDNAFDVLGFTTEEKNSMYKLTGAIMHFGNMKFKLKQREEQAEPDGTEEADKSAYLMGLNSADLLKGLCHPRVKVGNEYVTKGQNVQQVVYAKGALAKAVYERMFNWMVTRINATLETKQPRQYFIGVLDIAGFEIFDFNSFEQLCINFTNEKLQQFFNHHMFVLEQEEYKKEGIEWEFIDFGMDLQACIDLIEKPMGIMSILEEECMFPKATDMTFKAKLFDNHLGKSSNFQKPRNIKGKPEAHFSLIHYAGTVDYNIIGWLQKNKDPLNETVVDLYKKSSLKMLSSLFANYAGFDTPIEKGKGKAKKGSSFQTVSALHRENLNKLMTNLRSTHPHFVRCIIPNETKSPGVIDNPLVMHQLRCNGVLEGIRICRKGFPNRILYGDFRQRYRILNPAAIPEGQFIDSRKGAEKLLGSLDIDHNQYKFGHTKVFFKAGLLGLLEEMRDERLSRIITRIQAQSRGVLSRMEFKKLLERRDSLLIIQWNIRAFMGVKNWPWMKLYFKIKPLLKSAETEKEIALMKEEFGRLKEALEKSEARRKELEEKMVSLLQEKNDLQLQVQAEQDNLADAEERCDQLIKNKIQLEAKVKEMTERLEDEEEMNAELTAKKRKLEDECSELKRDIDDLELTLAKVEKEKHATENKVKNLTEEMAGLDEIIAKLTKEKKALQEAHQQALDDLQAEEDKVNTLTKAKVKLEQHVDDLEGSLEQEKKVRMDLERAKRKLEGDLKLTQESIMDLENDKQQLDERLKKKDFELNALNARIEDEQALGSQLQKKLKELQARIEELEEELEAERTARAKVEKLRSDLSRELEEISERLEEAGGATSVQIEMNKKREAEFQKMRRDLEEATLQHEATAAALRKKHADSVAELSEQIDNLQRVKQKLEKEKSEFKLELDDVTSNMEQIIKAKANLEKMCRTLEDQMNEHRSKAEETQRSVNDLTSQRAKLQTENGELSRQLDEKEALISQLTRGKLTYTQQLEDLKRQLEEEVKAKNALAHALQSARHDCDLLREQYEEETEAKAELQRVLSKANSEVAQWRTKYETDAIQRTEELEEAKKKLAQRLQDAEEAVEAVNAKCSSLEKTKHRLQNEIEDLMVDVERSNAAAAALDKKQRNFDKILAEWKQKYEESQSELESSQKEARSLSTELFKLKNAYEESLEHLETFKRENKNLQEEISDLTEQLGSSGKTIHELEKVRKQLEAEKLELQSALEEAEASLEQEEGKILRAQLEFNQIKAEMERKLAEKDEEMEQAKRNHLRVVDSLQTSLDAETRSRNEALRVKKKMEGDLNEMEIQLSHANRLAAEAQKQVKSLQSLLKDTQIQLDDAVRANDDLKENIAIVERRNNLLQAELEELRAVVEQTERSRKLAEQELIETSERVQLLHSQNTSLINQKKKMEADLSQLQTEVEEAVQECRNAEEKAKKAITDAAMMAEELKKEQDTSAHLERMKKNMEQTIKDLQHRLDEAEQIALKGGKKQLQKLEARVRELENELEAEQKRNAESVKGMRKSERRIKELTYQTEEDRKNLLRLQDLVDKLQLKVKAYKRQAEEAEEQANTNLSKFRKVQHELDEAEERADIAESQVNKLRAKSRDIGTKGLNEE
Sequence of bovine cardiac myofibrils (full-length cardiac myosin ATPase in the native sarcomere) (P85100 whole entry partner): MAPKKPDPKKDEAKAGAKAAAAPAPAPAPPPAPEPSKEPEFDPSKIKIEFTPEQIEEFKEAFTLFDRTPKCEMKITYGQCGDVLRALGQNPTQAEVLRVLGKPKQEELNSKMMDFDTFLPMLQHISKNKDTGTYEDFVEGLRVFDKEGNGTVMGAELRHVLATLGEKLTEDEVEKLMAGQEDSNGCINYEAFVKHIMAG
Sequence of bovine cardiac myofibrils (full-length cardiac myosin ATPase in the native sarcomere) (Q3SZE5 whole entry partner): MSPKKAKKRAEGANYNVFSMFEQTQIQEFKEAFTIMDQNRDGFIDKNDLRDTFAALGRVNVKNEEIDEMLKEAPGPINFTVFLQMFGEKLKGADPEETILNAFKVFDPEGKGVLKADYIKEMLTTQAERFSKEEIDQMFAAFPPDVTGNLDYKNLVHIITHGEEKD

On to `Cc1nc(-c2ccc3c(c2)CC[C@H]3NC(=O)c2ccc3[nH]c(=O)[nH]c3c2)no1` [Compound 125, (R)-N-(5-(5-methyl-1,2,4-oxadiazol-3-yl)-2,3-dihydro-1H-inden-1-yl)-2-oxo-2,3-dihydro-1H-benzo[d]imidazole-5-carboxamide], for which the “CDMF75 IC15” value worked out at 1600 nM and the IC50 – broadly, the concentration needed to halve the response being measured – was 6200 nM.
For `Cc1cc(C(=O)N[C@@H]2CCc3cc(-c4noc(C)n4)ccc32)n(C)n1` [Compound 106, (R)-1,3-dimethyl-N-(5-(5-methyl-1,2,4-oxadiazol-3-yl)-2,3-dihydro-1H-inden-1-yl)-1H-pyrazole-5-carboxamide] the same measures were 800 nM and 2800 nM.
For `Cn1nnc(C(=O)N[C@@H]2CCc3cc(-c4noc(C5CCC5)n4)ccc32)n1` [Compound 143, (R)—N-(5-(5-cyclobutyl-1,2,4-oxadiazol-3-yl)-2,3-dihydro-1H-inden-1-yl)-2-methyl-2H-tetrazole-5-carboxamide] the same measures were 300 nM and 1000 nM.
For the molecule `O=C(NC1CCc2cc(-c3noc(C(F)F)n3)ccc21)C(F)F` (stereo not shown) [Compound 1, N-(5-(5-(difluoromethyl)-1,2,4-oxadiazol-3-yl)-2,3-dihydro-1H-inden-1-yl)-2,2-difluoroacetamide], the “CDMF75 IC15” value was found to be 4500 nM and the 50% inhibitory concentration (IC50) worked out at 21700 nM.
The matching figures for `[2H]C([2H])([2H])C(=O)N[C@@H]1COc2cc(-c3noc(CC)n3)ccc21` [Compound 445, (S)-N-(6-(5-ethyl-1,2,4-oxadiazol-3-yl)-2,3-dihydrobenzofuran-3-yl)acetamide-2,2,2-d3]: 800 nM and 3000 nM.
The matching figures for `O=C(N[C@@H]1COc2cc(-c3noc(C(F)F)n3)ccc21)c1cc(CO)ccn1` [Compound 708, (S)-N-(6-(5-(difluoromethyl)-1,2,4-oxadiazol-3-yl)-2,3-dihydrobenzofuran-3-yl)-4-(hydroxymethyl)picolinamide]: 600 nM and 2800 nM.
For `CCc1nc(-c2ccc3c(c2)CC[C@H]3NC(=O)c2nnc(C)o2)no1` [Compound 618, (R)-N-(5-(5-ethyl-1,2,4-oxadiazol-3-yl)-2,3-dihydro-1H-inden-1-yl)-5-methyl-1,3,4-oxadiazole-2-carboxamide], the “CDMF75 IC15” value came out at 300 nM and the IC50 is 1100 nM.
For `CNC(=O)N[C@@H]1CCc2cc(-c3noc(C(F)F)n3)ccc21` [Compound 295, (R)-1-(5-(5-(difluoromethyl)-1,2,4-oxadiazol-3-yl)-2,3-dihydro-1H-inden-1-yl)-3-methylurea] the same measures were 4900 nM and greater than 39200 nM.
The matching figures for `Cn1nccc1C(=O)N[C@H]1COc2cc(-c3noc(C4CC4)n3)ccc21` [Compound 220, (R)-N-(6-(5-cyclopropyl-1,2,4-oxadiazol-3-yl)-2,3-dihydrobenzofuran-3-yl)-1-methyl-1H-pyrazole-5-carboxamide]: 38300 nM and greater than 39200 nM.
For `Cc1nc(-c2ccc3c(c2)OC[C@H]3NC(=O)c2cnn(C)c2C)no1` [Compound 163, (S)-1,5-dimethyl-N-(6-(5-methyl-1,2,4-oxadiazol-3-yl)-2,3-dihydrobenzofuran-3-yl)-1H-pyrazole-4-carboxamide] the same measures were 800 nM and 3100 nM.
On to `Cn1cc(C(=O)NC2COc3cc(-c4noc(C5CC5)n4)ccc32)cn1` (stereo not shown) [Compound 237, N-(6-(5-cyclopropyl-1,2,4-oxadiazol-3-yl)-2,3-dihydrobenzofuran-3-yl)-1-methyl-1H-pyrazole-4-carboxamide], for which the “CDMF75 IC15” value was 1100 nM and the IC50 was 3600 nM.
For `Cn1ncc(C(=O)NC2CCc3cc(-c4noc(C(F)F)n4)ccc32)n1` (stereo not shown) [Compound 83, N-(5-(5-(difluoromethyl)-1,2,4-oxadiazol-3-yl)-2,3-dihydro-1H-inden-1-yl)-2-methyl-2H-1,2,3-triazole-4-carboxamide] the same measures were 1900 nM and 7800 nM.
The matching figures for `O=C(N[C@@H]1CCc2cc(-c3noc(C(F)F)n3)ccc21)c1ocnc1C(F)(F)F` [Compound 682, (R)-N-(5-(5-(difluoromethyl)-1,2,4-oxadiazol-3-yl)-2,3-dihydro-1H-inden-1-yl)-4-(trifluoromethyl)oxazole-5-carboxamide]: 400 nM and 1600 nM.
The matching figures for `CCc1nc(-c2ccc3c(c2)CC[C@H]3NC(=O)OCCOC)no1` [Compound 324, 2-methoxyethyl (R)-(5-(5-ethyl-1,2,4-oxadiazol-3-yl)-2,3-dihydro-1H-inden-1-yl)carbamate]: 800 nM and 3200 nM.
Consider `CCc1nc(-c2ccc3c(c2)CC[C@H]3NC(=O)c2nccn2C)no1` [Compound 579, (R)-N-(5-(5-ethyl-1,2,4-oxadiazol-3-yl)-2,3-dihydro-1H-inden-1-yl)-1-methyl-1H-imidazole-2-carboxamide], for which the “CDMF75 IC15” value was determined as 1200 nM and the half-inhibitory concentration (IC50) is 5100 nM.
The matching figures for `CCc1cc(C(=O)N[C@@H]2CCc3cc(-c4noc(CC)n4)ccc32)ccn1` [Compound 660, (R)-2-ethyl-N-(5-(5-ethyl-1,2,4-oxadiazol-3-yl)-2,3-dihydro-1H-inden-1-yl)isonicotinamide]: 600 nM and 2000 nM.
The matching figures for `Cc1ncc(C(=O)N[C@@H]2CCc3cc(-c4noc(C5CCC5)n4)ccc32)o1` [Compound 410, (R)-N-(5-(5-cyclobutyl-1,2,4-oxadiazol-3-yl)-2,3-dihydro-1H-inden-1-yl)-2-methyloxazole-5-carboxamide]: 900 nM and 3500 nM.
The matching figures for `CCc1nc(-c2ccc3c(c2)OCCC3NC(=O)c2cnn(C)c2)no1` (stereo not shown) [Compound 534, N-(7-(5-ethyl-1,2,4-oxadiazol-3-yl)chroman-4-yl)-1-methyl-1H-pyrazole-4-carboxamide]: 2200 nM and 13500 nM.
Consider `CCc1nc(-c2ccc3c(c2)CC[C@H]3NC(=O)c2ccon2)no1` [Compound 586, (R)-N-(5-(5-ethyl-1,2,4-oxadiazol-3-yl)-2,3-dihydro-1H-inden-1-yl)isoxazole-3-carboxamide], for which the “CDMF75 IC15” value turned out to be 500 nM and the IC50 stood at 2300 nM.
For `Cc1c(C(=O)N[C@@H]2CCc3cc(-c4noc(C(F)F)n4)ccc32)cnn1C` [Compound 91, (R)-N-(5-(5-(difluoromethyl)-1,2,4-oxadiazol-3-yl)-2,3-dihydro-1H-inden-1-yl)-1,5-dimethyl-1H-pyrazole-4-carboxamide] the same measures were 500 nM and 1800 nM.
For the molecule `[2H]C([2H])([2H])c1nc(-c2ccc3c(c2)CC[C@H]3NC(=O)c2cn(C)nc2C)no1` [Compound 246, (R)-1,3-dimethyl-N-(5-(5-(methyl-d3)-1,2,4-oxadiazol-3-yl)-2,3-dihydro-1H-inden-1-yl)-1H-pyrazole-4-carboxamide], the “CDMF75 IC15” value is 1100 nM and the IC50 is 3500 nM.
For `CCc1nc(-c2ccc3c(c2)CC[C@H]3NC(=O)c2ccc(=O)n(CC(=O)O)c2)no1` [Compound 614, (R)-2-(5-((5-(5-ethyl-1,2,4-oxadiazol-3-yl)-2,3-dihydro-1H-inden-1-yl)carbamoyl)-2-oxopyridin-1(2H)-yl)acetic acid] the same measures were 3400 nM and 14700 nM.
On to `Cc1cnoc1C(=O)N[C@@H]1CCc2cc(-c3noc(C4CC4)n3)ccc21` [Compound 115, (R)-N-(5-(5-cyclopropyl-1,2,4-oxadiazol-3-yl)-2,3-dihydro-1H-inden-1-yl)-4-methylisoxazole-5-carboxamide], for which the “CDMF75 IC15” value turned out to be 300 nM and the IC50 was 900 nM.
For `CCc1nc(-c2ccc3c(c2)CC[C@H]3NC(=O)c2cnn(CCO)c2C)no1` [Compound 572, (R)-N-(5-(5-ethyl-1,2,4-oxadiazol-3-yl)-2,3-dihydro-1H-inden-1-yl)-1-(2-hydroxyethyl)-5-methyl-1H-pyrazole-4-carboxamide], the “CDMF75 IC15” value came to 500 nM and the half-maximal inhibitory concentration (IC50) came to 1800 nM.
As for `CCc1nc(-c2ccc3c(c2)CC[C@H]3NC(=O)OCC2CN(C(=O)NC)C2)no1` [Compound 363, (1-(methylcarbamoyl)azetidin-3-yl)methyl (R)-(5-(5-ethyl-1,2,4-oxadiazol-3-yl)-2,3-dihydro-1H-inden-1-yl)carbamate], the “CDMF75 IC15” value is 4700 nM and the IC50 worked out at 21100 nM.
For `O=C(NC1CCc2cc(-c3noc(C(F)F)n3)ccc21)c1ccn[nH]1` (stereo not shown) [Compound 49, N-(5-(5-(difluoromethyl)-1,2,4-oxadiazol-3-yl)-2,3-dihydro-1H-inden-1-yl)-1H-pyrazole-5-carboxamide] the same measures were 9800 nM and greater than 39200 nM.
The matching figures for `Cc1nn(C)cc1C(=O)N[C@@H]1CCc2cc(-c3noc(C(F)F)n3)ccc21` [Compound 90, (R)-N-(5-(5-(difluoromethyl)-1,2,4-oxadiazol-3-yl)-2,3-dihydro-1H-inden-1-yl)-1,3-dimethyl-1H-pyrazole-4-carboxamide]: 400 nM and 1900 nM.
The matching figures for `CCc1cc(-c2ccc3c(c2)CC[C@H]3NC(=O)c2ccnn2C)no1` [Compound 414, (R)—N-(5-(5-ethylisoxazol-3-yl)-2,3-dihydro-1H-inden-1-yl)-1-methyl-1H-pyrazole-5-carboxamide]: 200 nM and 600 nM.
Turning to `Cc1cc(-c2ccc3c(c2)OC[C@H]3NC(=O)c2cnc(C)o2)no1` [Compound 428, (S)-2-methyl-N-(6-(5-methylisoxazol-3-yl)-2,3-dihydrobenzofuran-3-yl)oxazole-5-carboxamide], the “CDMF75 IC15” value turned out to be 1000 nM and the IC50 is 3400 nM.

Values taken from US12065436B2, “Cardiac sarcomere inhibitors” (Cytokinetics, Inc., priority 2018, dated 2024).
